± gives the uncertainty stated by the source.
Assay: xn = mol fraction of the nth substance listed

CCCCCCCCCCCCCCCC[n+]1ccccc1.O=C([O-])c1ccccc1O + O
electrical conductivity [S/m], 101 kPa
Conditions	293.15 K	298.15 K	303.15 K	308.15 K	313.15 K
x1 = 7.2e-07	0.00046 ± 2.8e-05	0.000513 ± 3.1e-05	0.000569 ± 3.4e-05	0.000627 ± 3.8e-05	0.000668 ± 4e-05
x1 = 1.44e-06	0.000708 ± 4.3e-05	0.000794 ± 4.9e-05	0.000883 ± 5.3e-05	0.000973 ± 5.8e-05	0.00122 ± 7.4e-05
x1 = 1.98e-06	0.000945 ± 5.7e-05	0.00105 ± 6.3e-05	0.00117 ± 7.4e-05	0.00129 ± 8.3e-05	–
x1 = 2.34e-06	0.00114 ± 6.9e-05	0.00128 ± 7.9e-05	0.00144 ± 8.8e-05	0.00159 ± 9.7e-05	0.00177 ± 0.00011
x1 = 2.88e-06	0.00129 ± 7.8e-05	0.00148 ± 9.1e-05	0.00168 ± 0.0001	0.00186 ± 0.00011	–
x1 = 3.24e-06	–	–	–	–	0.0023 ± 0.00014
x1 = 3.42e-06	0.00142 ± 8.6e-05	0.00163 ± 9.9e-05	0.00186 ± 0.00011	0.0021 ± 0.00013	–
x1 = 3.96e-06	0.00156 ± 9.4e-05	0.00178 ± 0.00011	0.00202 ± 0.00012	0.0023 ± 0.00014	0.00268 ± 0.00016
x1 = 4.32e-06	0.00167 ± 0.0001	0.00191 ± 0.00012	0.00217 ± 0.00013	0.00247 ± 0.00015	–
x1 = 4.69e-06	–	–	0.00232 ± 0.00014	0.00263 ± 0.00016	0.003 ± 0.00018
x1 = 4.87e-06	0.00181 ± 0.00011	0.00205 ± 0.00013	–	–	–
x1 = 5.23e-06	0.00187 ± 0.00011	0.00217 ± 0.00013	0.00247 ± 0.00015	0.0028 ± 0.00017	–
x1 = 5.41e-06	–	–	–	–	0.00324 ± 0.0002
x1 = 5.59e-06	0.00204 ± 0.00012	0.00231 ± 0.00014	0.00261 ± 0.00016	0.00294 ± 0.00018	–
x1 = 5.95e-06	0.00212 ± 0.00013	0.00242 ± 0.00015	0.00273 ± 0.00016	0.00309 ± 0.00019	0.00348 ± 0.00021
x1 = 6.31e-06	0.00224 ± 0.00013	0.00254 ± 0.00015	0.00285 ± 0.00017	0.00321 ± 0.00019	–
x1 = 6.49e-06	0.00231 ± 0.00014	0.00263 ± 0.00016	0.00296 ± 0.00018	0.00333 ± 0.0002	0.00375 ± 0.00023
x1 = 6.85e-06	0.00243 ± 0.00015	0.00274 ± 0.00017	0.00307 ± 0.00018	0.00345 ± 0.00021	–
x1 = 7.03e-06	–	–	–	–	0.00396 ± 0.00024
x1 = 7.21e-06	0.00251 ± 0.00015	0.00283 ± 0.00017	0.00319 ± 0.00019	0.00358 ± 0.00021	–
x1 = 7.39e-06	–	–	–	–	0.00412 ± 0.00025
x1 = 7.75e-06	–	–	–	–	0.00431 ± 0.00026
x1 = 8.11e-06	–	–	–	–	0.00447 ± 0.00027
x1 = 8.65e-06	–	–	–	–	0.00464 ± 0.00028

O=C1CCCO1 + CCCC[n+]1ccn(C)c1.O=S(=O)([N-]S(=O)(=O)C(F)(F)F)C(F)(F)F
100 kPa
Conditions	electrical conductivity [S/m]	viscosity [mPa·s]
293.15 K, x1 = 0.2992	0.457 ± 0.014	29.86 ± 0.63
293.15 K, x1 = 0.8496	1.39 ± 0.042	–
293.15 K, x2 = 0.0151	0.411 ± 0.013	–
298.15 K, x1 = 0.5021	0.744 ± 0.022	14.84 ± 0.31
303.15 K, x1 = 0.2992	0.642 ± 0.019	20.99 ± 0.44
308.15 K, x1 = 0.5979	1.27 ± 0.038	8.18 ± 0.17
308.15 K, x1 = 0.7999	1.81 ± 0.054	4.12 ± 0.09
308.15 K, x1 = 0.8496	1.85 ± 0.055	–
308.15 K, x1 = 1	0.001 ± 0.001	1.52 ± 0.03
313.15 K, x1 = 0.1984	0.753 ± 0.023	18.48 ± 0.39
313.15 K, x1 = 0.5979	1.45 ± 0.043	7.26 ± 0.15
313.15 K, x1 = 0.95	1.42 ± 0.043	–
313.15 K, x1 = 1	0.001 ± 0.001	1.42 ± 0.03
313.15 K, x2 = 0.0151	0.542 ± 0.016	–
318.15 K, x1 = 0.7999	2.15 ± 0.065	3.44 ± 0.07
318.15 K, x1 = 0.8496	2.17 ± 0.065	–
318.15 K, x1 = 0.8995	2.02 ± 0.061	2.35 ± 0.05
318.15 K, x1 = 1	0.001 ± 0.001	1.35 ± 0.03
323.15 K, x1 = 0.7999	2.37 ± 0.071	3.11 ± 0.07
323.15 K, x1 = 1	0.002 ± 0.001	1.3 ± 0.03

— the CheMixHub ionic liquid set
